The record followed here is patent US11332461B2, “2-(1H-pyrazol-3-yl) phenol compound and use thereof” (BEIJING JIALIN PHARMACEUTICAL INC., priority 2017, dated 2022).

Assay [1] deals with H1299 cells (BRG1−/BRM+ cell line). Put plainly: Cell viability test, tetrazolium salt (MTT) method. As to conditions: Homo sapiens, NCI-H1299, cultured 3-4 days with compound, OD 490 nm. The class given is cell-based. The text has this: A tetrazolium salt (MTT) method is used for determining the pharmacodynamics activity of the compounds of the present invention by using H1299 cells as the cell line, wherein the cell line has deletion of the BRG1 gene (BRG1−), and has no deletion of the BRM gene (BRM+). That is, the cells of the cell line cannot express a BRG1 protein, but can normally express a BRM protein. Small molecules that could prevent the BRM protein from interacting with the chromosomes in the cells, could prevent the BRM protein from exerting functions in the cells. According to the law of synergistic lethality, in a BRG1-gene-deleted cell, if the function of the BRM protein is blocked, cell death will be caused, thereby achieving the function that the small molecules kill cancer cells.
The specific steps of the test are as follows: • (1) different experimental cell lines are subcultured into a 96-well plate, and to prevent a marginal effect, the peripheries of the 96-well plate are added with 100 μL of PBS as a blank, wherein the cell line as used is H1299 cells (BRG1−/BRM+cell line); • (2) when the cells are in adherent growth to be 40-50%, different concentrations of drug molecules and DMSO as controls are added, the cells treated with the small molecules continue to be cultured for 3-4 days, and the medium is replaced by a medium supplemented with small molecules during the culture; • (3) after the 96-well plate treated with DMSO in the control group is full of the cells, each well is added with 20 μL of a MTT mother liquor (5 mg/mL); • (4) the cell plate is placed back into a […] incubator of 37° C. and continue to be incubated for 4 hours; • (5) the MTT solution is pipetted off, and each well is added with 150 μL DMSO; • (6) the 96-well plate is placed in a shaker at room temperature with protection from light for 15 min, until purple crystals are completely dissolved. • (7) The absorbance (OD) of each well is determined by a SpectraMax M5 multi-well plate reader (Molecular Devices, USA) at a wavelength of 490 nm.
According to a conventional detection method, the EC50 values of respective compounds (small molecules) are determined, and the results are summarized in Table 1.

The next assay addresses BRM protein (Homo sapiens, UniProt P51531). The assay can be described thus: Ki of compounds (Table 1; no method described). The class given is binding.

Chain of BRM protein (P51531 whole entry): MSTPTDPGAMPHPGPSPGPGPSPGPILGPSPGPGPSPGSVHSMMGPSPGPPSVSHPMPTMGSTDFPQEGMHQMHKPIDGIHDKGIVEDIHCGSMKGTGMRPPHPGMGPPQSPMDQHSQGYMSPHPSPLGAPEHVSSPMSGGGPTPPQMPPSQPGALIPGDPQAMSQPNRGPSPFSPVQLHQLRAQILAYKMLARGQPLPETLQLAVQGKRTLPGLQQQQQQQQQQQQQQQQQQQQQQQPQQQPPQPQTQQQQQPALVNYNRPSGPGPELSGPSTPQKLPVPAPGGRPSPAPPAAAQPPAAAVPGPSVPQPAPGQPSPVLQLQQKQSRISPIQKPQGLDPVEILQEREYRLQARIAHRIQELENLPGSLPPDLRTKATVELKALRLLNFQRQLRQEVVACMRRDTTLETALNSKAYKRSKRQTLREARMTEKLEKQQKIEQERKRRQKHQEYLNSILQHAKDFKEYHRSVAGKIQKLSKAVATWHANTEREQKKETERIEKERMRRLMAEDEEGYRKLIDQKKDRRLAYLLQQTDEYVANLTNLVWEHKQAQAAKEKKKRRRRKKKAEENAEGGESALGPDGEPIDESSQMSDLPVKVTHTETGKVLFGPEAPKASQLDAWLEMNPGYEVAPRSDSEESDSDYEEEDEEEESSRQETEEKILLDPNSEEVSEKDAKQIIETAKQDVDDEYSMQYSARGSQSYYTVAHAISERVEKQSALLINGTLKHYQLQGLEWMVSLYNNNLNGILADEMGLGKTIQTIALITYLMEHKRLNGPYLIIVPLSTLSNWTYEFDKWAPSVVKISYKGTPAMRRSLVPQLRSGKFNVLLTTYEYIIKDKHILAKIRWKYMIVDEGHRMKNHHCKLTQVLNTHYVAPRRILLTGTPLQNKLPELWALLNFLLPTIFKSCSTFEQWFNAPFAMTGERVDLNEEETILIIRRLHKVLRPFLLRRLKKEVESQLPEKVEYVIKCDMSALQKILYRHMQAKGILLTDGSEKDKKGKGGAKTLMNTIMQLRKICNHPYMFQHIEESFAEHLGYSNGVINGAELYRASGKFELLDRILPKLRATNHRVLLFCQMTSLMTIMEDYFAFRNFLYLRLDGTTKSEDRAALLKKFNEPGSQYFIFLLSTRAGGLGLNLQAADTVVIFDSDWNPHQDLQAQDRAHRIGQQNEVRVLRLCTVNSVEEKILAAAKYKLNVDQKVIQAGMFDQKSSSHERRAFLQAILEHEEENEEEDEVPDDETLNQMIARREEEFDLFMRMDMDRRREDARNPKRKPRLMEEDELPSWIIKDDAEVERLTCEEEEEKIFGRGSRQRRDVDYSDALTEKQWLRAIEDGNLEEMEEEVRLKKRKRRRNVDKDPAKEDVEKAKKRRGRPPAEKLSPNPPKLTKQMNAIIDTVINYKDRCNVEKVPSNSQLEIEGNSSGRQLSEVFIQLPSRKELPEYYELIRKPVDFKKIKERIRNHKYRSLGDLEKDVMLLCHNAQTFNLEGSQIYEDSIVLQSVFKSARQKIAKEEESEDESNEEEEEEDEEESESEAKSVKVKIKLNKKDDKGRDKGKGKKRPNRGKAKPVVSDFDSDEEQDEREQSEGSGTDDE

On to `O=C(NCCc1ccc(F)cc1)c1cc(-c2cc(F)ccc2O)n[nH]1` [BRM2-157], for which the EC50 (usually the concentration needed to bring the measured effect to its halfway point) in assay [1] was determined as 4.3 µM. Affinity on BRM protein was put at a Ki of 0.8 µM.
For `O=C(Nc1ccc(-c2cc(-c3cc(F)ccc3O)n[nH]2)cc1)c1ccnc(Cl)c1` [BRM2-123], in that order: 2.8 µM and 0.7 µM.
On to `Nc1c(F)ccc(O)c1-c1cc(-c2ccc(Br)cc2)[nH]n1` [BRM2-4], for which the concentration giving a half-maximal response (EC50) in assay [1] was found to be 6.7 µM. In addition, the Ki (as a rule, a measure of affinity in units of concentration, obtained from inhibition or displacement) at BRM protein came out at 1.8 µM.
For `Cc1cccc(C)c1-c1ccc(-c2cc(-c3cc(F)ccc3O)n[nH]2)cc1` [BRM2-27], in that order: over 20 µM and 2.7 µM.
In the case of `CN1CCN(c2ccccc2-c2cc(-c3cc(F)ccc3O)n[nH]2)CC1` [BRM2-34], the 50% effective concentration (EC50) in assay [1] was 7.6 µM. Affinity on BRM protein was put at a Ki of 1.4 µM.
For `O=C(Nc1ccc(-c2cc(-c3cc(F)ccc3O)n[nH]2)cc1)c1ccccn1` [BRM2-112], in that order: 6.5 µM and 0.9 µM.
For `Nc1c(F)ccc(O)c1-c1cc(-c2ccc(-c3ccc(F)cc3)cc2)[nH]n1` [BRM2-22], in that order: 3.3 µM and 1.5 µM.
For `O=C(Nc1cc(-c2cc(F)ccc2O)n[nH]1)c1ccccc1` [BRM2-162], in that order: over 20 µM and 6.8 µM.
Consider `CN1CCN(c2cccc(-c3cc(-c4cc(F)ccc4O)n[nH]3)c2)CC1` [BRM2-39], for which the EC50 in assay [1] was 9.3 µM. At BRM protein, this molecule displayed an inhibition constant Ki of 1.8 µM.
For `O=C(Nc1ccc(-c2cc(-c3cc(F)ccc3O)n[nH]2)cc1)c1cnccn1` [BRM2-124], in that order: 1.5 µM and 0.6 µM.
For `COC(=O)C(Cc1cnc[nH]1)NC(=O)c1cc(-c2cc(F)ccc2O)n[nH]1` (stereo not shown) [BRM2-152], in that order: 2.5 µM and 0.5 µM.
For `Nc1cc(-c2cc(F)ccc2O)n[nH]1` [BRM2-160], in that order: 18.2 µM and 3.2 µM.
Consider `CN1CCN(c2ccc(-c3cc(-c4cc(F)ccc4O)n[nH]3)cc2)CC1` [BRM2-32], for which the EC50 in assay [1] stood at 5.8 µM. On BRM protein, this molecule yielded a Ki of 3.7 µM.
For `CN(Cc1ccccc1)C(=O)c1cc(-c2cc(F)ccc2O)n[nH]1` [BRM2-143], in that order: 17.3 µM and 2.8 µM.
In the case of `COC(=O)C1CCCN1C(=O)c1cc(-c2cc(F)ccc2O)n[nH]1` (stereo not shown) [BRM2-150], the EC50 in assay [1] was 10.3 µM. Besides, the affinity on BRM protein corresponds to a Ki of 1.8 µM.
For `O=C(Nc1ccc(-c2cc(-c3cc(F)ccc3O)n[nH]2)cc1)C12CC3CC(CC(C3)C1)C2` [BRM2-106], in that order: 0.9 µM and 0.2 µM.
For `O=C(NCCc1ccc(O)cc1)c1cc(-c2cc(F)ccc2O)n[nH]1` [BRM2-137], in that order: over 20 µM and 1.1 µM.
For `O=C(NCc1ccc(O)cc1)c1cc(-c2cc(F)ccc2O)n[nH]1` [BRM2-138], in that order: over 20 µM and 2 µM.
As for `O=C(Nc1ccc(-c2cc(-c3cc(F)ccc3O)n[nH]2)cc1)c1cccnc1` [BRM2-121], the EC50 in assay [1] stood at 2.4 µM. Affinity at BRM protein was put at a Ki of 0.6 µM.
For `CN1CCCN(c2ccc(-c3cc(-c4cc(F)ccc4O)n[nH]3)cc2)CC1` [BRM2-31], in that order: 1.7 µM and 0.9 µM.
As to `O=C(Nc1cc(-c2cc(F)ccc2O)n[nH]1)c1ccc(O)cc1` [BRM2-163], the EC50 in assay [1] was found to be 17.2 µM. Moreover, on BRM protein, the inhibition constant (Ki) amounted to 4.4 µM.
Take `COC(=O)C(CCS(C)(=O)=O)NC(=O)c1cc(-c2cc(F)ccc2O)n[nH]1` (stereo not shown) [BRM2-149]: in assay [1], the EC50 worked out at 8.9 µM. Further, at BRM protein, the affinity corresponds to a Ki of 1.2 µM.
As to `Cc1ccccc1-c1cc(-c2cc(F)ccc2O)n[nH]1` [BRM2-11], in assay [1], the EC50 is over 20 µM. For the same molecule, the affinity at BRM protein corresponds to a Ki of 1.6 µM.
Take `O=C(NCCc1ccc(Cl)cc1)c1cc(-c2cc(F)ccc2O)n[nH]1` [BRM2-140]: the EC50 in assay [1] came to 14.7 µM. Besides, at BRM protein, affinity was put at a Ki of 2 µM.
For `Cc1ccc(C(=O)Nc2ccc(-c3cc(-c4cc(F)ccc4O)n[nH]3)cc2)cn1` [BRM2-111], in that order: 3.8 µM and 0.8 µM.
For `O=C(Cc1ccc(F)cc1)Nc1cc(-c2cc(F)ccc2O)n[nH]1` [BRM2-168], in that order: 13.4 µM and 2.5 µM.
For `Oc1ccc(F)cc1-c1cc(N2CC3CC2CN3c2ccccn2)[nH]n1` (stereo not shown) [BRM2-41], in that order: 13.5 µM and 2.7 µM.
Take `O=C(Nc1ccc(-c2cc(-c3cc(F)ccc3O)n[nH]2)cc1)c1c(F)cccc1F` [BRM2-105]: the EC50 in assay [1] was over 20 µM. For the same molecule, affinity on BRM protein was put at a Ki of 4.1 µM.
For the molecule `Oc1ccc(F)cc1-c1cc(-c2ccc(N3CCCCC3)cc2)[nH]n1` [BRM2-33], the EC50 in assay [1] was found to be 15 µM. The molecule further displayed a Ki at BRM protein of 2.7 µM.
For `CC(C)(C)c1ccc(-c2cc(-c3cc(F)ccc3O)n[nH]2)cc1` [BRM2-8], in that order: 8.5 µM and 2.2 µM.
For `O=C(Nc1ccc(-c2cc(-c3cc(F)ccc3O)n[nH]2)cc1)c1cccc(F)c1F` [BRM2-114], in that order: 11.4 µM and 3 µM.
For the molecule `O=C(Cc1ccc(O)cc1)Nc1cc(-c2cc(F)ccc2O)n[nH]1` [BRM2-164], the EC50 in assay [1] is over 20 µM. This molecule also displayed a Ki on BRM protein of 6.9 µM.
Take `O=C(Nc1cc(-c2cc(F)ccc2O)n[nH]1)c1cnccn1` [BRM2-166]: in assay [1], the EC50 amounted to 7.3 µM. This molecule had a Ki on BRM protein of 1.7 µM.
In the case of `CCN(Cc1ccccc1)C(=O)c1cc(-c2cc(F)ccc2O)n[nH]1` [BRM2-144], the EC50 in assay [1] was over 20 µM. At BRM protein, the affinity, expressed as Ki, was 4.6 µM.
Take `CCc1ccc(-c2cc(-c3cc(F)ccc3O)n[nH]2)cc1` [BRM2-9]: the concentration giving a half-maximal response (EC50) in assay [1] is over 20 µM. The molecule also gave a Ki on BRM protein of 4.6 µM.
For `NC(=O)CCC(NC(=O)c1cc(-c2cc(F)ccc2O)n[nH]1)C(=O)N1CCOCC1` (stereo not shown) [BRM2-156], in that order: 1.7 µM and 0.4 µM.
For `O=C(NCc1ccc(F)cc1)c1cc(-c2cc(F)ccc2O)n[nH]1` [BRM2-136], in that order: 18 µM and 3 µM.
For `Nc1cccc(O)c1-c1cc(-c2ccc(Br)cc2)[nH]n1` [BRM2-6], in that order: 12 µM and 2.3 µM.
As to `CC(C)N(Cc1ccccc1)C(=O)c1cc(-c2cc(F)ccc2O)n[nH]1` [BRM2-145], in assay [1], the EC50 was over 20 µM. The inhibition constant Ki at BRM protein was 5.3 µM.
As to `COc1cccc(C(=O)Nc2ccc(-c3cc(-c4cc(F)ccc4O)n[nH]3)cc2)c1OC` [BRM2-113], in assay [1], the concentration for a half-maximal effect (EC50) was over 20 µM. The molecule also gave a Ki on BRM protein of 2 µM.
For `CS(=O)(=O)c1ccc(-c2ccc(-c3cc(-c4cc(F)ccc4O)n[nH]3)cc2)cc1` [BRM2-30], in that order: 10.5 µM and 2 µM.
